Data set [1] has as its system Quadruplex DNA. As to the kind of experiment: Stabilization of TTRG3 G-quadruplex (unknown origin) assessed as change in melting temperature in presence of K+ by circular dichroism analysis. The format is nucleic-acid assay.
Data set [2] concerns Quadruplex DNA. Nature of the data set: Binding affinity to TTRG3 G-quadruplex (unknown origin) assessed as increase in fluorescence by measuring red shift at 1 uM by UV-Visible spectrophotometric analysis. The class given is nucleic-acid assay.
The test system of data set [3] is Quadruplex DNA. Nature of the data set: Binding affinity to parallel TTRG1 G-quadruplex (unknown origin) assessed as formation of anti-parallel G-quadruplex formation in presence of 100 mM K+ by circular dichroism spectra analysis. The class given is nucleic-acid assay. A general note: Circular dichroism is widely used to follow secondary structure.
Data set [4] relates to HepG2. As to the kind of experiment: Cytotoxicity against human HepG2 cells at 50 uM by CCK-8 assay relative to control. The format is toxicity, cell-based. To be noted: hepg2, 50 µM. For orientation: Formazan colour is commonly taken as a measure of viable cells.
Data set [5] concerns Quadruplex DNA. Nature of the data set: Stabilization of parallel TTRG3 G-quadruplex (unknown origin) by CD spectra analysis. The class given is nucleic-acid assay.
Data set [6] concerns the target Quadruplex DNA. Nature of the data set: Binding affinity to TTRG3 G-quadruplex (unknown origin) assessed as dissociation constant by fluorescence spectroscopy. The class given is nucleic-acid assay.
Data set [7] concerns Quadruplex DNA. Nature of the data set: Binding affinity to TTRG3 G-quadruplex (unknown origin) assessed as increase in fluorescence intensity at 2 uM by fluorescence titration spectra analysis. The format is nucleic-acid assay.
Data set [8] relates to Quadruplex DNA. As to the kind of experiment: Stabilization of TTRG3 G-quadruplex (unknown origin) assessed as melting temperature in presence of K+ by circular dichroism analysis. The format is nucleic-acid assay.
Data set [9] relates to Quadruplex DNA. Nature of the data set: Binding affinity to TTRG3 G-quadruplex (unknown origin) assessed as hyperchromic shift by measuring increase in absorbance intensity at 1 uM by UV-Visible spectrophotometric analysis. The class given is nucleic-acid assay.
Data set [10] has as its system Quadruplex DNA. As to the kind of experiment: Binding affinity to parallel TTRG1 G-quadruplex (unknown origin) assessed as formation of anti-parallel G-quadruplex formation in presence of 1 mM K+ by circular dichroism spectra analysis. The class given is nucleic-acid assay.
In data set [11] the test system is HepG2. Nature of the data set: Induction of apoptosis in human HepG2 cells at 20 uM incubated for 48 hrs by calcein-AM/PI staining based analysis. The format is functional, cell-based.
In data set [12] the test system is Quadruplex DNA. As to the kind of experiment: Binding affinity to parallel TTRG3 G-quadruplex (unknown origin) assessed as formation of anti-parallel G-quadruplex formation in presence of 100 mM K+ by circular dichroism spectra analysis. The format is nucleic-acid assay.
The subject of data set [13] is HepG2. As to the kind of experiment: Downregulation of TTR mRNA expression in human HepG2 cells by RT-PCR analysis. The format is functional, cell-based.

SMILES strings stand for the structures. The source made the active and inactive calls. The calls are words filed in the database; no cut-off is given here.

`CN1/C(=C/c2cc[n+](C)c3ccccc23)Sc2ccccc21.Cc1ccc(S(=O)(=O)[O-])cc1`: the ΔTm – broadly, the change in melting temperature against a reference sample – with Quadruplex DNA [1] came out at 5.4 °C. Further, the outcome in the data set with Quadruplex DNA [2], with Quadruplex DNA [5], with Quadruplex DNA [7], with Quadruplex DNA [9] and with Quadruplex DNA [10] was Active. For the same compound, the result in the data set with Quadruplex DNA [3], in the data set on HepG2 [11] and in the data set on Quadruplex DNA [12] was inactive. For the same compound, the Activity in the data set with HepG2 [4] is 85%. For the same compound, the Kd – broadly, the constant that tells how readily two partners part at equilibrium – on Quadruplex DNA [6] came to 167 nM. Besides, the Tm in the data set on Quadruplex DNA [8] came out at 53.3 °C.
On to `C[n+]1ccc(-c2c3nc(c(-c4cc[n+](C)cc4)c4ccc([nH]4)c(-c4cc[n+](C)cc4)c4ccc([nH]4)c(-c4cc[n+](C)cc4)c4nc2C=C4)C=C3)cc1`, for which, in the data set on Quadruplex DNA [1], the ΔTm came to 21.5 °C. For the same compound, the result in the data set with Quadruplex DNA [2], in the data set on Quadruplex DNA [5], in the data set on Quadruplex DNA [9] and with Quadruplex DNA [10] was Active. Besides, the result in the data set with Quadruplex DNA [3], with Quadruplex DNA [7], in the data set with HepG2 [11] and with Quadruplex DNA [12] was inactive. Also, the Activity entry in the data set on HepG2 [13] was “Dose-Dependent Effect”. In the data set with Quadruplex DNA [8], the Tm stood at 69.4 °C.
Turning to `CCC1=C(C)c2cc3[nH]c(cc4nc(cc5c(CC)c(C)c(cc1n2)n5C)C(C)=C4CCC(=O)O)c(CCC(=O)O)c3C`, in the data set with Quadruplex DNA [1], the ΔTm is 16.1 °C. The outcome in the data set with Quadruplex DNA [2], with Quadruplex DNA [5], in the data set with Quadruplex DNA [7], in the data set on Quadruplex DNA [9] and with Quadruplex DNA [10] was Active. The result in the data set on Quadruplex DNA [3], in the data set with HepG2 [11] and in the data set with Quadruplex DNA [12] was inactive. Also, the Activity with HepG2 [4] turned out to be 85%. For the same compound, the Kd on Quadruplex DNA [6] came to 5.3 nM. In addition, the Tm in the data set on Quadruplex DNA [8] stood at 64 °C.
Take `CN(C)c1ccc(Nc2c3ccc(NC(=O)CCN4CCCC4)cc3nc3cc(NC(=O)CCN4CCCC4)ccc23)cc1`: in the data set with Quadruplex DNA [1], the ΔTm was found to be 6.9 °C. The result with Quadruplex DNA [2], in the data set on Quadruplex DNA [3], in the data set with Quadruplex DNA [7], with Quadruplex DNA [9], in the data set with HepG2 [11] and in the data set with Quadruplex DNA [12] was inactive. The results for the Activity result with HepG2 [13] and with HepG2 [4] were “Dose-Dependent Effect” and 85%, respectively. Also, the result in the data set on Quadruplex DNA [5] and with Quadruplex DNA [10] was Active. The Tm with Quadruplex DNA [8] was determined as 54.8 °C.
Turning to `C[n+]1ccc(-c2c3nc(c(-c4cc[n+](C)cc4)c4ccc([nH]4)c(-c4cc[n+](C)cc4)c4nc(c(-c5cc[n+](C)cc5)c5ccc2[nH]5)C=C4)C=C3)cc1.Cc1ccc(S(=O)(=O)[O-])cc1.Cc1ccc(S(=O)(=O)[O-])cc1.Cc1ccc(S(=O)(=O)[O-])cc1.Cc1ccc(S(=O)(=O)[O-])cc1`, the Activity with HepG2 [4] is listed as 85%. Also, the Kd at Quadruplex DNA [6] was 148 nM.
